Among the test systems are NCI-H522 lung; NCI-H460 lung; SF-295 CNS; U251 CNS; KM12 colon; OVCAR-4 ovarian; HCC-2998 colon; HT29 colon; SR leukemia.
Experiment in all cases: DTP human tumour cell line panel, 48 h

Each structure is given as a SMILES string.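 Cells were grown in 96-well plates and exposed to each compound for 48 hours at five concentrations; endpoints were interpolated linearly between bracketing concentrations, or set to the highest concentration if not reached. GI50: concentration for 50% inhibition of growth. Definition used: TGI = concentration required for complete inhibition of growth.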

Consider `CCOC(=O)c1[nH]cc(C)c1-c1cccn1-c1ccc(Cl)cc1[N+](=O)[O-]`, for which the TGI with NCI-H522 lung is 34.9 µM; with NCI-H460 lung, 48 µM; with SF-295 CNS, 83 µM; in the assay with U251 CNS, 33.1 µM; in the assay with KM12 colon, 52.9 µM; in the assay on OVCAR-4 ovarian, > 100 µM. The figures for the total growth inhibition concentration (TGI) in the assay on HCC-2998 colon and with HT29 colon were 66.3 µM and 30.7 µM, respectively.

With `CSc1ncc2c(n1)-c1ccccc1OC2N1CCOCC1` (stereo not given), the TGI in the assay on NCI-H522 lung, in the assay with NCI-H460 lung, with SF-295 CNS, with U251 CNS, in the assay with KM12 colon and in the assay on OVCAR-4 ovarian was > 100 µM each time. Also, the concentration for total growth inhibition (TGI) in the assay on SR leukemia and in the assay on HT29 colon was > 100 µM in each case.

As for `CCC(C)(C)c1cc(O)c(C(C)(C)CC)cc1O`, the GI50 in the assay on NCI-H522 lung is 1.98 µM; with NCI-H460 lung it was 2.25 µM; in the assay with SF-295 CNS, 2.25 µM; with U251 CNS, 2.18 µM; in the assay with KM12 colon, 3.52 µM; with OVCAR-4 ovarian, 3.26 µM. Also, the GI50 was 2.3 µM in the assay on HCC-2998 colon and 2.13 µM with HT29 colon. Also, the TGI with NCI-H522 lung worked out at 6.03 µM; in the assay with NCI-H460 lung, 6.53 µM; in the assay on SF-295 CNS, 5.18 µM; in the assay on U251 CNS it was 6.23 µM; in the assay on KM12 colon it was 12.6 µM; with OVCAR-4 ovarian, 14.1 µM. The total growth inhibition concentration (TGI) in the assay on HCC-2998 colon was 5.36 µM; in the assay with HT29 colon, 5.27 µM.

Consider `CC(=O)C1=C(C)O[C@@H]2O[C@H](COCc3ccccc3)[C@@H](OCc3ccccc3)[C@H](O)[C@@H]2S1`, for which the TGI in the assay with NCI-H522 lung worked out at 30.9 µM; with NCI-H460 lung it was 38.9 µM; with SF-295 CNS, 31.3 µM; in the assay on U251 CNS it was 38.5 µM; in the assay with KM12 colon it was 38.1 µM; with OVCAR-4 ovarian, 73.7 µM. Moreover, the results for the TGI in the assay with SR leukemia and with HT29 colon were 46.1 µM and 43.2 µM, respectively.

In the case of `O=c1cc(-c2ccccc2)[nH]c2ncccc12`, the TGI was 0.702 µM with NCI-H522 lung; > 52.1 µM in the assay with NCI-H460 lung; 0.269 µM with SF-295 CNS; 15.7 µM in the assay on KM12 colon; > 100 µM with OVCAR-4 ovarian; > 42 µM in the assay on HCC-2998 colon. The TGI in the assay with HT29 colon amounted to 0.426 µM.

On to `O=C(CN1CCCC1=O)CS(=O)(=O)c1ccccc1`, for which the TGI in the assay with NCI-H522 lung, in the assay on NCI-H460 lung, in the assay with SF-295 CNS, in the assay with U251 CNS, in the assay with KM12 colon and with SR leukemia was > 100 µM throughout. Moreover, the total growth inhibition concentration (TGI) in the assay with HCC-2998 colon and in the assay on HT29 colon was > 100 µM throughout.

As to `O=C(NC(=S)Nc1ccc([N+](=O)[O-])cc1)c1ccc2c(c1)Sc1ccccc1O2`, the TGI in the assay with NCI-H522 lung, with NCI-H460 lung, in the assay on SF-295 CNS, in the assay on U251 CNS, in the assay on KM12 colon and with SR leukemia was > 100 µM each time. The TGI in the assay with HT29 colon is > 100 µM.

For `CC#C[C@]1(O)CCC2[C@@H]3CCC4=CC(=O)CCC4=C3[C@@H](c3ccc(N(C)C)cc3)C[C@@]21C` (stereo not given in full), the TGI with NCI-H460 lung came out at 28.3 µM; in the assay with SF-295 CNS, 30.1 µM; in the assay with U251 CNS it was 35.2 µM; with KM12 colon, 65.2 µM; with OVCAR-4 ovarian, 33.5 µM; in the assay on SR leukemia it was 37.1 µM. Further, the total growth inhibition concentration (TGI) with HT29 colon came out at 28.7 µM.

Take `Cc1ncc([N+](=O)[O-])n1CC[N+](C)([O-])CCCCn1ccnc1[N+](=O)[O-]` (stereo not given): the concentration for total growth inhibition (TGI) with NCI-H522 lung, in the assay on NCI-H460 lung, with SF-295 CNS, in the assay with U251 CNS, with KM12 colon and with OVCAR-4 ovarian was > 100 µM each time. For the same compound, the TGI in the assay on SR leukemia and in the assay on HT29 colon was > 100 µM in each case.

Consider `Cc1cc2nc3c(C#N)c4c(c(Nc5ccc(F)cc5)n3c2cc1C)CCC4`, for which the concentration for total growth inhibition (TGI) with NCI-H522 lung, in the assay on NCI-H460 lung, in the assay on SF-295 CNS, in the assay with U251 CNS, with KM12 colon and with OVCAR-4 ovarian was > 100 µM in each case. In addition, the TGI in the assay with SR leukemia and with HT29 colon was > 100 µM in each case.

With `CCOC(=O)/C=C/C(=O)O/C=C/[N+](=O)[O-]`, the total growth inhibition concentration (TGI) in the assay with NCI-H522 lung, with NCI-H460 lung, in the assay with SF-295 CNS, in the assay on U251 CNS, in the assay on KM12 colon and with SR leukemia was > 100 µM each time. Also, the total growth inhibition concentration (TGI) in the assay with HCC-2998 colon and in the assay on HT29 colon was > 100 µM in each case.

As for `COc1ccc2nc3c([N+](=O)[O-])ccc(NCCN(C)C)c3c(N)c2c1`, the total growth inhibition concentration (TGI) came out at 2.95 µM in the assay with NCI-H460 lung; 3.62 µM in the assay with SF-295 CNS; 3.13 µM in the assay on U251 CNS; 0.939 µM in the assay on KM12 colon; 2.95 µM with OVCAR-4 ovarian; 2.9 µM in the assay on SR leukemia. The total growth inhibition concentration (TGI) in the assay on HT29 colon came to 1.73 µM.

As to `Cc1ccccc1NC(=O)Cc1csc(N/N=C2\NC(=O)/C(=C/c3cccc([N+](=O)[O-])c3)S2)n1`, the total growth inhibition concentration (TGI) in the assay on NCI-H460 lung worked out at 29 µM; with SF-295 CNS it was 41.8 µM; in the assay on U251 CNS, 53.8 µM; with KM12 colon, 34.2 µM; in the assay with OVCAR-4 ovarian it was 44.2 µM; in the assay on HCC-2998 colon, 27.3 µM. Moreover, in the assay with HT29 colon, the TGI was > 100 µM.

With `Clc1cc(-c2ccccc2)nc(Nc2nc3ccccc3[nH]2)n1`, the TGI in the assay with NCI-H522 lung was 33.1 µM; with NCI-H460 lung, 93.7 µM; in the assay with SF-295 CNS it was > 100 µM; in the assay with U251 CNS, 30.7 µM; with KM12 colon, > 100 µM; with OVCAR-4 ovarian it was 33 µM. The TGI is 10.5 µM with SR leukemia and 45.6 µM in the assay with HT29 colon.

What is called TGI is the concentration giving total growth inhibition. Read a high TGI as less potent growth arrest. The term GI50 denotes the concentration that inhibits growth by half.
